Measured values from PubChem BioAssay (NCI).
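Results reflect a 48-hour exposure of cells in 96-well plates to compound at five concentrations. GI50 is the concentration that inhibits growth by half. TGI: total growth inhibition.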

What was measured:
Experiment in all cases: NCI anticancer screen, dose series, 48 h
OVCAR-5 ovarian = system: OVCAR-5 ovarian
CCRF-CEM leukemia = system: CCRF-CEM leukemia
RPMI-8226 leukemia = system: RPMI-8226 leukemia
UACC-62 melanoma = system: UACC-62 melanoma
SF-539 CNS = system: SF-539 CNS
TK-10 renal = system: TK-10 renal
HOP-92 NSCLC = system: HOP-92 NSCLC
SNB-19 CNS = system: SNB-19 CNS
M14 melanoma = system: M14 melanoma
BT-549 breast = system: BT-549 breast
HCT-116 colon = system: HCT-116 colon
NCI/ADR-RES ovarian = system: NCI/ADR-RES ovarian
RXF 393 renal = system: RXF 393 renal
A549 NSCLC = system: A549 NSCLC
HCT-15 colon = system: HCT-15 colon
T-47D breast = system: T-47D breast
HCC-2998 colon = system: HCC-2998 colon
SNB-75 CNS = system: SNB-75 CNS
OVCAR-4 ovarian = system: OVCAR-4 ovarian
786-0 renal = system: 786-0 renal
SK-MEL-5 melanoma = system: SK-MEL-5 melanoma
NCI-H522 lung = system: NCI-H522 lung
NCI-H226 lung = system: NCI-H226 lung
SK-MEL-28 melanoma = system: SK-MEL-28 melanoma
PC-3 prostate = system: PC-3 prostate
UO-31 renal = system: UO-31 renal
SF-295 CNS = system: SF-295 CNS
MALME-3M melanoma = system: MALME-3M melanoma

Work on COc1cc(-c2csc(NC(=O)Nc3cc(Cl)cc(Cl)c3)n2)cc(OC)c1OC yielded a GI50 (OVCAR-5 ovarian) of 2.25 µM, a TGI (OVCAR-5 ovarian) of 6.16 µM and a GI50 (CCRF-CEM leukemia) of 3.41 µM. For the same molecule, the TGI (CCRF-CEM leukemia) was greater than 100 µM, the GI50 (RPMI-8226 leukemia) was 2.42 µM and the TGI (RPMI-8226 leukemia) was 9.24 µM. The GI50 (UACC-62 melanoma) was 1.61 µM, the TGI (UACC-62 melanoma) was 3.11 µM and the GI50 (SF-539 CNS) was 1.99 µM. The TGI (SF-539 CNS) was 4.7 µM, the GI50 (TK-10 renal) was 1.73 µM and the TGI (TK-10 renal) was 3.16 µM. It also gave a GI50 (HOP-92 NSCLC) of 1.7 µM, a TGI (HOP-92 NSCLC) of 3.73 µM and a GI50 (SNB-19 CNS) of 1.93 µM. For the same molecule, the TGI (SNB-19 CNS) was 4.03 µM, the GI50 (M14 melanoma) was 1.68 µM and the TGI (M14 melanoma) was 3.15 µM. It also gave a GI50 (BT-549 breast) of 2.2 µM, a TGI (BT-549 breast) of 4.65 µM and a GI50 (HCT-116 colon) of 1.6 µM. For the same molecule, the TGI (HCT-116 colon) was 2.97 µM, the GI50 (NCI/ADR-RES ovarian) was 1.85 µM and the TGI (NCI/ADR-RES ovarian) was 3.94 µM. It also gave a GI50 (RXF 393 renal) of 1.73 µM, a TGI (RXF 393 renal) of 3.76 µM and a GI50 (A549 NSCLC) of 1.72 µM. It also gave a TGI (A549 NSCLC) of 3.61 µM, a GI50 (HCT-15 colon) of 2.33 µM and a TGI (HCT-15 colon) of 6.97 µM. It also gave a GI50 (T-47D breast) of 1.67 µM, a TGI (T-47D breast) of 3.74 µM and a GI50 (HCC-2998 colon) of 2.39 µM. For the same molecule, the TGI (HCC-2998 colon) was 5.55 µM, the GI50 (SNB-75 CNS) was 1.49 µM and the TGI (SNB-75 CNS) was 2.88 µM. The GI50 (OVCAR-4 ovarian) was 1.78 µM, the TGI (OVCAR-4 ovarian) was 3.36 µM and the GI50 (786-0 renal) was 1.84 µM. The TGI (786-0 renal) was 3.33 µM, the GI50 (SK-MEL-5 melanoma) was 3.15 µM and the TGI (SK-MEL-5 melanoma) was 11.2 µM. It also gave a GI50 (NCI-H522 lung) of 2.05 µM, a TGI (NCI-H522 lung) of 7.09 µM and a GI50 (NCI-H226 lung) of 1.96 µM. The TGI (NCI-H226 lung) was 4.38 µM, the GI50 (SK-MEL-28 melanoma) was 2.17 µM and the TGI (SK-MEL-28 melanoma) was 5.43 µM. The GI50 (PC-3 prostate) was 1.59 µM, the TGI (PC-3 prostate) was 3.61 µM and the GI50 (UO-31 renal) was 1.67 µM. It also gave a TGI (UO-31 renal) of 3.3 µM, a GI50 (SF-295 CNS) of 1.55 µM and a TGI (SF-295 CNS) of 3.01 µM. The GI50 (MALME-3M melanoma) was 1.75 µM and the TGI (MALME-3M melanoma) was 3.25 µM.
